Consider twelve compounds from patent US20110002843A1, “METHOD OF DETECTING MYOCARDIAL DYSFUNCTION IN PATIENTS HAVING A HISTORY OF ASTHMA OR BRONCHOSPASM” (priority 2005, published 2011).

Series [1] addresses T1, A2A adenosine receptor (Cavia porcellus, UniProt P46616). More on the design: a Langendorff guinea pig heart preparation; from tissue; host or cells: isolated perfused guinea pig heart (Langendorff), coronary vasculature. Conditions: heart paced at 260 beats/min; data of U.S. Pat. No. 5,278,150; read-out: EC50—CF (A2A); cited from earlier work.
Series [2] addresses T1, A2A adenosine receptor. In words: Langendorff guinea pig heart preparation, coronary vasodilation (coronary flow). Conditions: quotient EC50-SQPR / EC50-CF.
Experimental: The A1/A2A selectivity in Table 1 was calculated as the quotient of the EC50 of stimulus-QRS prolongation divided by the EC50 of coronary vasodilation.
A further series concerns the target T2, A1 adenosine receptor (Cavia porcellus, UniProt P47745).
T2 sequence (P47745 1-326): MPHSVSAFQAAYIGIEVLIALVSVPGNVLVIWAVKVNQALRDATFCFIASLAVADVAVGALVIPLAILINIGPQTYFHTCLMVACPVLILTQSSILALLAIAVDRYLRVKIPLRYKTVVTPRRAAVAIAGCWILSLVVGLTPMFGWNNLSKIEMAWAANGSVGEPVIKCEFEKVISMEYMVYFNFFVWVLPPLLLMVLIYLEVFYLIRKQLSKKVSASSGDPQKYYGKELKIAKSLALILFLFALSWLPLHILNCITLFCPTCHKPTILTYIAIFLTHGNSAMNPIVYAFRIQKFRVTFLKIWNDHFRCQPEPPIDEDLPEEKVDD
More on the design: a Langendorff guinea pig heart preparation; from tissue; host or cells: isolated perfused guinea pig heart (Langendorff). Conditions: heart paced at 260 beats/min; data of U.S. Pat. No. 5,278,150; read-out: EC50—SQPR (A1); cited from earlier work.

Series [3] in a line: Dose-selection study of coronary hyperemia (CBFV by Doppler guide wire) in non-asthmatic patients at cardiac catheterization. To be noted: intracoronary bolus injections before binodenoson. As to the method:
Coronary blood flow velocity reserve (CBFVR) was established by intracoronary (IC) bolus injections of adenosine just prior to administration of binodenoson to allow a direct comparison of the magnitude of responses.
Patients presenting for cardiac catheterization were screened for eligibility and provided informed consent prior to sedation. Final eligibility was determined by the investigator during diagnostic catheterization.
Following completion of the diagnostic catheterization procedure and confirmation of all eligibility criteria, the Doppler guide wire was introduced into an accessible coronary artery and manipulated until a stable signal was obtained.
Drug administration: All usual catheterization procedural medications including IC nitroglycerin, heparin, anxiolytics and analgesics, were allowed. […] Binodenoson doses were then introduced into a peripheral vein via an indwelling catheter.
Measurements: Coronary blood flow velocity (CBFV) was measured as continuous pulsatile (systolic and diastolic) velocity (cm/sec) with the Doppler guide wire introduced via a guiding catheter. HR was derived from the ECG signal. SBP and diastolic blood pressure (DBP) were recorded directly from the catheter sheath. For each IC adenosine injection, CBFVR was calculated by dividing the peak post-injection CBFV value by the respective baseline CBFV value. Each patient's maximal calculated CBFVR was used as a benchmark to which CBFV responses to binodenoson were compared. For each binodenoson dose, baseline CBFV (post-IC adenosine), peak CBFV, time following dose start time to achieve peak CBFV and percents of CBFVR (calculated as the ratio of CBFV change from baseline following binodenoson administration vs CBFVR) at each point were calculated. Rate pressure product (RPP) and coronary vascular resistance (CVR) were derived at each time point (see formulas in Table 10). […] Vital signs were measured again approximately 3 to 4 hours after dosing or prior to hospital discharge. Patients returned for a follow-up visit 2 to 4 days following catheterization that included vital signs, an abbreviated physical examination, a 12-lead ECG, blood chemistry and hematology assessments and an assessment of any late-emerging adverse events.
Adverse events were monitored throughout the study.
Statistical analyses: All pharmacodynamic and safety data were analyzed using the intent-to-treat (ITT) population, which included all patients who received any amount of study drug. A paired t test was used to assess the significance of within-treatment differences (peak vs baseline) in CBFV, vital signs and calculated CVR and RPP; repeated comparisons were corrected using the Bonferroni-Holm method. The statistical significance of differences among treatment groups was evaluated using an analysis of variance (ANOVA) model that included treatment and investigator interactions.

Broadly, the EC50 is the concentration giving half of the maximal effect.

T1 sequence (P46616 whole entry, the tested form may be a part): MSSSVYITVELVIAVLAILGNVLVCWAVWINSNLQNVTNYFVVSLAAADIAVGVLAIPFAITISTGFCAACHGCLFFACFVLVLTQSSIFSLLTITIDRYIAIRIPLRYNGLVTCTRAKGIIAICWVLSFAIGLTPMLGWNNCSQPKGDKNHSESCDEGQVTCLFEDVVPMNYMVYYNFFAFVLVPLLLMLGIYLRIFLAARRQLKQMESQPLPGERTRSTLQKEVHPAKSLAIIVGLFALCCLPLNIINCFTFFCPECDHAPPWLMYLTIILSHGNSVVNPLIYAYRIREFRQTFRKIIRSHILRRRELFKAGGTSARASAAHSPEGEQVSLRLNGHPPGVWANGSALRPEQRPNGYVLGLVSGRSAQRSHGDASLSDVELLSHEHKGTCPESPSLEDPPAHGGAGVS

On to `Cc1cccc(C=NNc2nc(N)c3ncn(C4OC(CO)C(O)C4O)c3n2)c1` (centres unmarked) [L, 2-[2-(3-Methylbenzylidine)hydrazino]adenosine], for which the EC50 at A2A adenosine receptor [1] is 0.0044 µM; at A1 adenosine receptor, 17 µM. The “A1/A2A Selectivity” value at A2A adenosine receptor [2] is reported as 3,800.
In the case of `Nc1ncnc2c1ncn2[C@@H]1O[C@H](CO)[C@@H](O)[C@H]1O` [Compare A, Adenosine, reference compound], in series [3], the “effect on CBFV” value is given as “transient increases” and the “effects on SBP, DBP, or HR” value is on record as “no consistent effects”.
`Cc1ccc(C=NNc2nc(N)c3ncn(C4OC(CO)C(O)C4O)c3n2)cc1` (centres unmarked) [K, 2-[2-(4-Methylbenzylidine) hydrazino]adenosine]: the EC50 at A1 adenosine receptor was 39.8 µM.
For the compound `Nc1nc(N/N=C/C2CC=CCC2)nc2c1ncn2[C@@H]1O[C@H](CO)[C@@H](O)[C@H]1O` (stereo in doubt) [B, 2-{2-[(Cyclohex-3-enyl)methylene]hydrazino}adenosine], the EC50 on A1 adenosine receptor is 13.8 µM.
For the compound `Nc1nc(NN=Cc2ccc(F)cc2)nc2c1ncn2[C@@H]1O[C@H](CO)[C@@H](O)[C@H]1O` [J, 2-[2-(4-Fluorobenzylidene) hydrazino]adenosine], the “A1/A2A Selectivity” value on A2A adenosine receptor [2] was 5,100.
`NNc1nc(N)c2ncn([C@@H]3O[C@H](CO)[C@@H](O)[C@H]3O)c2n1` [Compare C, 2-Hydrazino-adenosine, reference compound]: on A2A adenosine receptor [2], the “A1/A2A Selectivity” value is 250.
In the case of `Nc1nc(N)c2ncn([C@@H]3O[C@H](CO)[C@@H](O)[C@H]3O)c2n1` [Compare B, 2-Amino-adenosine, reference compound], the EC50 on A2A adenosine receptor [1] is 0.22 µM. The “A1/A2A Selectivity” value on A2A adenosine receptor [2] was found to be 50.
Consider `CCCCCC=NNc1nc(N)c2ncn([C@@H]3O[C@H](CO)[C@@H](O)[C@H]3O)c2n1` [E, 2-[2-(hexylidene)hydrazino]adenosine], for which the “A1/A2A Selectivity” value at A2A adenosine receptor [2] is 38,000.
For the compound `CCCC(CCC)CCC=NNc1nc(N)c2ncn([C@@H]3O[C@H](CO)[C@@H](O)[C@H]3O)c2n1` [G, 2-[2-(4-propylheptylidene)hydrazino]adenosine], the EC50 on A2A adenosine receptor [1] was 0.00178 µM; on A1 adenosine receptor it was 66.1 µM. In addition, the “A1/A2A Selectivity” value on A2A adenosine receptor [2] was 37,200.
In the case of `CC(C)CCC=NNc1nc(N)c2ncn([C@@H]3O[C@H](CO)[C@@H](O)[C@H]3O)c2n1` [C, 2-[2-(4-methylpentylidene)hydrazino]adenosine], the “A1/A2A Selectivity” value on A2A adenosine receptor [2] is listed as 44,700.
As for `CCCCC(CC)CC=NNc1nc(N)c2ncn([C@@H]3O[C@H](CO)[C@@H](O)[C@H]3O)c2n1` (some centres unmarked) [D, 2-[2-(3-ethylheptylidene)hydrazino]adenosine], at A1 adenosine receptor, the EC50 is 9.77 µM.
In the case of `Nc1nc(N/N=C/c2ccccc2)nc2c1ncn2[C@@H]1O[C@H](CO)[C@@H](O)[C@H]1O` (stereo in doubt) [I, 2-[2-(Benzylidene) hydrazino]adenosine], the EC50 on A2A adenosine receptor [1] was 0.00229 µM; on A1 adenosine receptor, 83.2 µM. Besides, on A2A adenosine receptor [2], the “A1/A2A Selectivity” value is recorded as 36,300.
